# Experimental data taken from patent publication US9682071B2, “Methods of improving microvascular integrity” (INTERMUNE, INC., priority 2013, dated 2017).
# Tested on: trachea allograft mouse model of acute transplant rejection
# Test: murine orthotopic tracheal transplant model (allograft rejection)
# Format: in vivo
# Conditions: for tissue oxygenation (pO2): pirfenidone-treated allografted mice vs untreated allografted controls, over time post-transplantation (FIG. 3), pO2 in mm Hg
# Experimental: Pirfenidone was tested in a murine orthotopic tracheal transplant model, as generally described in Babu et al., J Clin Invest. 2007; 117(12):3774-3785. In this model in which allograft rejection occurs, typically perfusion ceases after a fixed period of time which is highly reliable (10 days). […] Perfusion is later restored on rejecting allografts as recipient-derived vessels neovascularize the transplant on d28. In contrast, mice receiving syngeneic (identical) grafts maintain tissue oxygenation at approximately the same levels throughout. Magnified images of the microvasculature, obtained after i.v. injection of FITC-conjugated (green) tomato lectin to bind and identify perfused vasculature, are shown in FIG. 1B.
smiles,measurement,setting,value
"Cc1ccc(=O)n(-c2ccccc2)c1 [Pirfenidone, 5-methyl-1-phenyl-2-(1H)-pyridone]",fibrosis,allograft recipients fed pirfenidone in their chow,significantly attenuated
same,perfused vasculature (FITC-conjugated tomato lectin images),"allograft recipients fed pirfenidone in their chow, vs control allografted mice receiving no treatment",the vasculature is protected
same,appearance of vasculature at days 10 and 12,"pirfenidone in chow, days 10 and 12 post-transplantation, FITC-lectin images (FIG. 2)",robust
same,time vasculature is preserved,pirfenidone-treated allografted mice (FIG. 3),at least 12 days post-transplantation
same,tissue oxygenation (pO2),,maintained tissue oxygenation at approximately the same levels throughout the time period shown
same,tissue oxygenation (pO2),listed as pirfenidone,maintaining tissue oxygenation levels at the same levels through at least day 12
